The subject of the assay is BHY cells (human oral squamous cell carcinoma cells). The assay can be described thus: Proliferation assay (alamarBlue) with BHY cells. It counts as cell-based. To be noted: read-out: Activity Range: weighted arithmetic mean (AVEw) of normalized fluorescence intensity relative to DMSO basis level 1.0. An excerpt: The antiproliferative activities of compounds falling under formula (Ia), (Tb) and (Ic), respectively, were investigated on cells or cell lines originating from a disorder of the haematopoietic system, including the myeloid cell compartment and the lymphoid cell compartment (T-cells and B-cells), the neuroendocrine system, the cervix, the breast, the ovaries, the lung, the gastrointestinal tract, and the mucosal epithelium, as well as from the skin epithelium and from the muscle. To this end, HL-60 cells, NB-4 cells, HH cells, RPMI-8402 cells, TANOUE cells, TT cells, HeLa cells, MDA-MB-231 cells, FU-OV-1 cells, LOU-NH91 cells, 23132/87 cells, CAL-27 cells, BHY cells, SCC-25 cells, A-431 cells, human primary epidermal keratinocytes (HPEK), and C2C12 cells were seeded into 96-well plates suitable for fluorescence assays (CORNING #3598) at following initial cell numbers: 1000 cells per well for HL-60; 1000 cells per well for NB-4; 5000 cells per well for HH; 5000 cells per well for RPMI-8402; 1500 cells per well for TANOUE; 9000 cells per well for TT; 2000 cells per well for HeLa; 3000 cells per well for MDA-MB-231; 3000 cells per well for FU-OV-1; 4000 cells per well for LOU-NH91; 2000 cells per well for 23132/87; 2000 cells per well for CAL-27; 1500 cells per well for BHY; 1500 cells per well for SCC-25; 700 cells per well for A-431; 1000 cells per well for HPEK; 500 cells per well for C2-C12. The cells were treated with compounds at indicated final concentrations (diluted from the 1000× stock-solutions in DMSO to a final DMSO concentration of 0.1% v/v in H2O (Water For Injection, WFI, Fisherscientific #10378939)) or with the empty carrier DMSO at 0.1% v/v as control for 5 days. At day 5 after starting the treatments the cells were subjected to the alamarBlue® Proliferation Assay (Bio-Rad Serotec GmbH, BUF012B) according to the protocol of the manufacturer. The readout was taken with a multi-well plate-reader in the fluorescence mode with applying a filter for excitation at 560 nm (band width 10 nm) and for emission at 590 nm (band width 10 nm). Control treatments for growth inhibition with commercial compounds such as Methotrexate (MTREX) and Resveratrol (RES) were included on every plate. Some of the test compounds of the present invention were obtained and applied as their salts. According cases are indicated in the column “Specification” in Table 30 to Table 62 and by their sum formula in Table 63.
The assays were performed in duplicate or more replicates of independent single experiments each containing a six-fold replicate for every condition. For every individual plate, the measured fluorescence intensity values of the conditions with compound treatment were normalized against the corresponding equally weighted arithmetic mean of the fluorescence intensity values of the six DMSO treated control wells in order to obtain the relative values to a baseline level of 1.0.
Two independent outlier analyses were performed according to the methods by Peirce and Chauvenet (Ross, Journal of Engineering Technology 2003, 1-12). Outliers confirmed by at least one of the methods were excluded from the calculations but not more than one value out of six per compound within a single experiment. The weighted arithmetic mean (here abbreviated as AVEw) for each compound was calculated from the normalized values over all independent replicates of the single experiments comprising the six replicates each. The corresponding standard deviation for the weighted arithmetic mean was calculated according to the method described by Bronstein et al. (Bronstein, Semendjajew, Musiol, Muhlig, Taschenbuch der Mathematik, 5th edition 2001 (German), publisher: Verlag Harri Deutsch, Frankfurt am Main and Thun) and was combined with the Gauβ′ error propagation associated with the performed calculation for the normalization. The resulting standard deviation is herein referred to as “combined standard deviation”. […]

As to `Oc1ccc(C=Cc2cc(O)cc(O)c2)cc1` [RES, resveratrol, reference compound], the activity at 20 µM turned out to be 50 ± 10%.

The values above are taken from patent publication US20240140895A1, “NOVEL AROMATIC MOLECULES” (XENIOPRO GmbH, priority 2018, published 2024).
